Reference: patent publication US20090042863A1, “Therapeutic Agent for Diabetes” (Takeda Pharmaceutical Company Limited, priority 2005, published 2009)
Counter-ions that a name gives are not always drawn.

Tests used:
Assay type in all cases: in vivo
db/db mouse [1] = assay: Pancreatic insulin content in db/db mice, Experimental Example 4 (pioglitazone, compound C); settings: male, 6-week-old, powder diet with pioglitazone hydrochloride 0.0075 (w/w)% as pioglitazone and/or compound C 0.1 (w/w)% free form for 26 consecutive days, pancreas isolated at day 28, mean ± SD, n=7
Protocol: (§1) First, the mouse pancreas was homogenated in its 10 times weight of 74% ethanol (containing 0.15 mM hydrochloric acid). The obtained homogenate solution was left standing overnight under the shading conditions at 4° C., and centrifuged at 15000 rpm for 5 min. The obtained supernatant was appropriately diluted with PBS(−) (phosphate-buffered saline) containing 0.1% BSA (bovine serum albumin). The insulin content of the diluted solution was measured by radioimmunoassay (trade name: RAT INSULIN RIA KIT, manufactured by RINCO Research, U.S.A.), and the insulin content per pancreatic tissue weight was calculated. […]
(§2) In the above-mentioned Groups A-D, pancreas was isolated from the mice at day 28 from the start of the powder feed administration, and the pancreatic insulin content was measured.
(§3) The insulin content per pancreatic tissue weight was calculated in the same manner as in Experimental Example 1. […]

db/db mouse [2] = assay: Pancreatic insulin content in db/db mice, Experimental Example 2 (voglibose, compound A); settings: male, 6-week-old, powder diet with voglibose 0.001 (w/w)% and/or compound A 0.03 (w/w)% free form for 27 consecutive days, pancreas isolated at day 29, mean ± SD, n=6
Protocol: as §1
In the above-mentioned Groups A-D, pancreas was isolated from the mice at day 29 from the start of the powder feed administration, and the pancreatic insulin content was measured.
as §3

db/db mouse [3] = assay: Pancreatic insulin content in db/db mice, Experimental Example 3 (pioglitazone, compound B); settings: male, 6-week-old, powder diet with pioglitazone hydrochloride 0.0075 (w/w)% as pioglitazone and/or compound B 0.03 (w/w)% free form for 26 consecutive days, pancreas isolated at day 28, mean ± SD, n=7
Protocol: as §1, §2, §3

Row | SMILES | Pancreatic insulin content (db/db mouse [1]) [ng/mg tissue] | Pancreatic insulin content (db/db mouse [2]) [ng/mg tissue] | Pancreatic insulin content (db/db mouse [3]) [ng/mg tissue]
1 | N#Cc1ccccc1Cn1c(N2CCC[C@@H](N)C2)ncc(F)c1=O.O=C(O)C(O)C(O)C(=O)O [compound C, 2-[2-(3-(R)-aminopiperidin-1-yl)-5-fluoro-6-oxo-6H-pyrimidin-1-ylmethyl]benzonitrile tartrate] | 57.2 ± 17.8 | – | –
2 | Cn1c(=O)cc(N2CCC[C@@H](N)C2)n(Cc2ccccc2C#N)c1=O.O=C(O)c1ccccc1 [compound A, 2-[[6-[(3R)-3-amino-1-piperidinyl]-3,4-dihydro-3-methyl-2,4-dioxo-1(2H)-pyrimidinyl]methyl]benzonitrile benzoate] | – | 92.0 ± 37.0 | –
3 | CCc1ccc(CCOc2ccc(CC3SC(=O)NC3=O)cc2)nc1 (stereo not drawn) [pioglitazone, pioglitazone hydrochloride] | 74.8 ± 21.5 | – | 74.8 ± 21.5
4 | OCC(CO)N[C@H]1C[C@](O)(CO)[C@@H](O)[C@H](O)[C@H]1O [voglibose] | – | 198.1 ± 169.8 | –
5 | Cn1c(=O)cc(N2CCC[C@@H](N)C2)n(Cc2cc(F)ccc2C#N)c1=O.O=C(O)CCC(=O)O [compound B, 2-[[6-[(3R)-3-amino-1-piperidinyl]-3,4-dihydro-3-methyl-2,4-dioxo-1(2H)-pyrimidinyl]methyl]-4-fluorobenzonitrile succinate] | – | – | 58.1 ± 17.0
